These results are taken from patent US11999727B2 (Tango Therapeutics, Inc., priority 2020, dated 2024).

Test [1] addresses T1, PRMT5 (Homo sapiens, UniProt O14744).
T1 construct: purchased Viva (custom protein)
The test is described as follows: PRMT5 biochemical IC50 assay with SAM as cofactor. As to conditions: PRMT5, SAM as cofactor; read-out: SAM IC50.

Test [2] has as its target T1, PRMT5. The experiment in a line: PRMT5 biochemical IC50 assay with no cofactor. As to conditions: PRMT5, no cofactor; read-out: No Cofactor/rel IC50. An excerpt: Table 1 indicates IC50 values (μM) against PRMT5 for exemplary compounds in the presence of SAM as cofactor, with no cofactor, and with MTA as cofactor, respectively (columns 4-6). […] Ki values can be calculated from the IC50 values as described in the Examples section. As detailed in the Examples section, for the assay performed in the presence of SAM, IC50=Ki×1.5 (Ki=IC50/1.5).

Test [3] deals with T1, PRMT5. The test is described as follows: PRMT5 biochemical IC50 assay with MTA as cofactor. As to conditions: PRMT5, MTA as cofactor; read-out: MTA IC50.
Test [4] has as its system HAP1 MTAP-intact cell line. The test is described as follows: SDMA in-cell western assay, HAP1 MTAP-intact. Format: cell-based. As to conditions: Homo sapiens, HAP1, SDMA in-cell western, HAP1 MTAP-intact; read-out: MTAP HAP1 intact IC50. The method in brief:
(§1)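 Isogenic HAP1 pair: the MTAP-intact line expresses endogenous MTAP, and the deleted line is MTAP-null. Symmetric dimethylarginine was detected by in-cell western and IC50 values derived for each line.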

The subject of test [5] is HAP1 MTAP-deleted cell line. The test is described as follows: SDMA in-cell western assay, HAP1 MTAP-deleted. Format: cell-based. As to conditions: for IC50: Homo sapiens, HAP1, SDMA in-cell western, HAP1 MTAP-deleted, read-out: HAP 1 MTAP deleted IC50; for MTAP intact/deleted ratio: IC50 ratio HAP1 MTAP-intact / HAP1 MTAP-deleted, SDMA in-cell western. The method in brief: as §1

For test [6], the system named is HAP1 MTAP-deleted cell line. The test is described as follows: Viability assay, MTAP-deleted cell line. As to conditions: Homo sapiens, HAP1, viability IC50, MTAP-deleted cell line; read-out: HAP1 MTAP deleted viability. It counts as cell-based. An excerpt: Table 1 additionally indicates IC50 values in a viability assay for the MTAP-deleted cell line (column 10), indicating the effect of treatment with compound on cell survival.

T1 sequence (O14744 whole entry): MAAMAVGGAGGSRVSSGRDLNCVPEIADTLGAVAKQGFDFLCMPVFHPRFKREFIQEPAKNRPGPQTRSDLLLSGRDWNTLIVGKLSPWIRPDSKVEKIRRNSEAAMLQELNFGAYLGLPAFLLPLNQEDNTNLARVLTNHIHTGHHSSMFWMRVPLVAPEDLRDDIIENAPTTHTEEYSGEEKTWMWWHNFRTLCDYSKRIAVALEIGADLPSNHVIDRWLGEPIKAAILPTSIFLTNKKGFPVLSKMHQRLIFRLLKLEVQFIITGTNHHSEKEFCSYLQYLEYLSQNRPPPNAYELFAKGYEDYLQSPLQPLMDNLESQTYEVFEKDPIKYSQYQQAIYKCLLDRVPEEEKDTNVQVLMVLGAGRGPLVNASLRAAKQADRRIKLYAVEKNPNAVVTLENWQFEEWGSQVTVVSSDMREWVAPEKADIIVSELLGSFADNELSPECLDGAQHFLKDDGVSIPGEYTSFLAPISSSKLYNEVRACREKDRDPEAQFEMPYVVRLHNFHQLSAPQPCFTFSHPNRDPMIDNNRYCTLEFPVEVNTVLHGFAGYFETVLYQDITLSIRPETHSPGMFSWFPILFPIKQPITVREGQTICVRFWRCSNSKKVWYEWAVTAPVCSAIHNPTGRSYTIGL
T1 sequence (Q9BQA1 whole entry partner): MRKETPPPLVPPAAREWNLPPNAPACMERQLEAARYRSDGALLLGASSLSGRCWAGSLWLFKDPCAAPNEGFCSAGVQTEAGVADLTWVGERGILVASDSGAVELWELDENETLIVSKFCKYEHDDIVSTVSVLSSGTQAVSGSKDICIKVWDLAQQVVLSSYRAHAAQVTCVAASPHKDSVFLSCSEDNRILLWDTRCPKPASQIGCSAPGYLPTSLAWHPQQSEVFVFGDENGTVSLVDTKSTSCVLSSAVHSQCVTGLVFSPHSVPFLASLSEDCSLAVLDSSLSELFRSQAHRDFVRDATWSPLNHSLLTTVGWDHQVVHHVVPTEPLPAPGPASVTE

As to `Cc1cc(NC(=O)C(=O)N2C[C@H](C)CC[C@H]2C2CCN(C)CC2)cnc1N` (racemic) [Compound 614, N-(6-amino-5-methyl-3-pyridyl)-2-[(2R,5S)-5-methyl-2-(1-methyl-4-piperidyl)-1-piperidyl]-2-oxo-acetamide], the IC50 in test [1] is above 500 nM; in test [2] it was above 500 nM; in test [3] it was above 500 nM; in test [4], above 1000 nM; in test [5] it was above 1000 nM; in test [6] it was above 10000 nM. In test [5], the MTAP intact/deleted ratio result is “C (an IC50 ratio of less than 3 fold)”.
`Cc1ncc(NC(=O)C(=O)N2C[C@H](C)CC[C@H]2c2ccc(F)cc2)cc1Cl` (racemic) [Compound 622, N-(5-chloro-6-methyl-3-pyridyl)-2-[(2S,5R)-2-(4-fluorophenyl)-5-methyl-1-piperidyl]-2-oxo-acetamide]: the IC50 in test [1] was 50 to 500 nM; in test [2], 50 to 500 nM; in test [3] it was 50 to 500 nM; in test [4] it was above 1000 nM; in test [5], above 1000 nM; in test [6] it was above 10000 nM. Moreover, in test [5], the MTAP intact/deleted ratio result is “B (an IC50 ratio greater than or equal to 3 fold but lower than 10 fold)”.
Turning to `C[C@@H]1CC[C@@H](c2ccc3[nH]c(=O)[nH]c3c2)N(C(=O)C(=O)Nc2cncc(C(N)=O)c2)C1` (racemic) [Compound 623, rac-5-[[2-[(2R,5S)-5-methyl-2-(2-oxo-1,3-dihydrobenzimidazol-5-yl)-1-piperidyl]-2-oxo-acetyl]amino]pyridine-3-carboxamide], the IC50 in test [1] was 50 to 500 nM; in test [2], 50 to 500 nM; in test [3], 50 to 500 nM; in test [4], above 1000 nM; in test [5], 100 to 1000 nM; in test [6], above 10000 nM. Besides, the MTAP intact/deleted ratio entry in test [5] is “A (an IC50 ratio greater than or equal to 10 fold)”.
As to `Cc1ncc(NC(=O)C(=O)N2C[C@H](C)CC[C@H]2c2ccc3c(c2)CCC(=O)N3)cc1Cl` (racemic) [Compound 639, N-(5-Chloro-6-methyl-3-pyridyl)-2-[(2R,5S)-5-methyl-2-(2-oxo-3,4-dihydro-1H-quinolin-6-yl)-1-piperidyl]-2-oxo-acetamide], the IC50 in test [1] was 50 to 500 nM; in test [2] it was 50 to 500 nM; in test [3] it was 50 to 500 nM; in test [4], above 1000 nM; in test [5] it was below 100 nM; in test [6], 1000 to 10000 nM. Further, in test [5], the MTAP intact/deleted ratio entry is “A (an IC50 ratio greater than or equal to 10 fold)”.
In the case of `Cc1cc(NC(=O)C(=O)N2CC[C@@H](C)C[C@H]2c2ccccc2)cnc1N` (racemic) [Compound 640, N-(6-amino-5-methyl-3-pyridyl)-2-[(2R,4S)-4-methyl-2-phenyl-1-piperidyl]-2-oxo-acetamide], the IC50 was 50 to 500 nM in test [1]; 50 to 500 nM in test [2]; 50 to 500 nM in test [3]; above 1000 nM in test [4]; 100 to 1000 nM in test [5]; 1000 to 10000 nM in test [6]. In addition, in test [5], the MTAP intact/deleted ratio result is given as “A (an IC50 ratio greater than or equal to 10 fold)”.
Turning to `Cc1cc(NC(=O)C(=O)N2C[C@H](C)CC[C@H]2c2ccc3c(c2)CCC(=O)N3)cnc1C(F)F` (racemic) [Compound 641, N-[6-(Difluoromethyl)-5-methyl-3-pyridyl]-2-[(2S,5R)-5-methyl-2-(2-oxo-3,4-dihydro-1H-quinolin-6-yl)-1-piperidyl]-2-oxo-acetamide], the IC50 was 50 to 500 nM in test [1]; 50 to 500 nM in test [2]; 50 to 500 nM in test [3]; above 1000 nM in test [4]; 100 to 1000 nM in test [5]; 1000 to 10000 nM in test [6].
As for `CCc1cc([C@@H]2CC[C@@H](C)CN2C(=O)C(=O)Nc2cncc(C(N)=O)c2)ccc1O` (racemic) [Compound 642, 5-[[2-[(2R,5S)-2-(3-Ethyl-4-hydroxy-phenyl)-5-methyl-1-piperidyl]-2-oxo-acetyl]amino]pyridine-3-carboxamide], the IC50 is 50 to 500 nM in test [1]; 50 to 500 nM in test [2]; 50 to 500 nM in test [3]; above 1000 nM in test [4]; below 100 nM in test [5]; below 1000 nM in test [6]. In test [5], the MTAP intact/deleted ratio result is listed as “A (an IC50 ratio greater than or equal to 10 fold)”.
`Cc1cc(NC(=O)C(=O)N2C[C@H](C)CC[C@H]2c2ccc(S(C)(=O)=O)cc2)cnc1N` (racemic) [Compound 643, N-(6-amino-5-methyl-3-pyridyl)-2-[(2R,5S)-5-methyl-2-(4-methylsulfonylphenyl)-1-piperidyl]-2-oxo-acetamide]: the IC50 was 50 to 500 nM in test [1]; 50 to 500 nM in test [2]; 50 to 500 nM in test [3]; above 1000 nM in test [4]; 100 to 1000 nM in test [5]; 1000 to 10000 nM in test [6]. Besides, the MTAP intact/deleted ratio result in test [5] is reported as “C (an IC50 ratio of less than 3 fold)”.
As to `Cc1cc(NC(=O)C(=O)N2C[C@H](C)CC[C@H]2c2ccc(C(N)=O)s2)cnc1N` (racemic) [Compound 644, 5-[(2S,5R)-1-[2-[(6-amino-5-methyl-3-pyridyl)amino]-2-oxo-acetyl]-5-methyl-2-piperidyl]thiophene-2-carboxamide], the IC50 in test [1] is 50 to 500 nM; in test [2], 50 to 500 nM; in test [3], 50 to 500 nM; in test [4] it was 100 to 1000 nM; in test [5] it was below 100 nM; in test [6] it was below 1000 nM. Also, in test [5], the MTAP intact/deleted ratio entry is reported as “A (an IC50 ratio greater than or equal to 10 fold)”.
For the compound `Cc1cc(NC(=O)C(=O)N2C[C@H](C)CC[C@H]2c2cccc(S(C)(=O)=O)c2)cnc1C` (racemic) [Compound 648, N-(5,6-dimethyl-3-pyridyl)-2-[(2R,5S)-5-methyl-2-(3-methylsulfonylphenyl)-1-piperidyl]-2-oxo-acetamide], the IC50 in test [1] was 50 to 500 nM; in test [2] it was 50 to 500 nM; in test [3], 50 to 500 nM; in test [4], above 1000 nM; in test [5], above 1000 nM; in test [6] it was above 10000 nM. The MTAP intact/deleted ratio result in test [5] is “B (an IC50 ratio greater than or equal to 3 fold but lower than 10 fold)”.
Take `Cc1cc(NC(=O)C(=O)N2C[C@H](C)CC[C@H]2c2ccc(S(C)(=O)=O)cc2)cnc1C` (racemic) [Compound 649, N-(5,6-dimethyl-3-pyridyl)-2-[(2R,5S)-5-methyl-2-(4-methylsulfonylphenyl)-1-piperidyl]-2-oxo-acetamide]: the IC50 in test [1] was above 500 nM; in test [2] it was 50 to 500 nM; in test [3], 50 to 500 nM; in test [4], above 1000 nM; in test [5], above 1000 nM; in test [6], above 10000 nM. Also, in test [5], the MTAP intact/deleted ratio result is recorded as “B (an IC50 ratio greater than or equal to 3 fold but lower than 10 fold)”.
In the case of `C[C@@H]1CC[C@@H](c2ccc(S(N)(=O)=O)cc2)N(C(=O)C(=O)Nc2cncc(C(N)=O)c2)C1` (racemic) [Compound 651, rac 5-[[2-[(2S,5R)-5-methyl-2-(4-sulfamoylphenyl)-1-piperidyl]-2-oxo-acetyl]amino]pyridine-3-carboxamide], the IC50 in test [1] is 50 to 500 nM; in test [2] it was 50 to 500 nM; in test [3], 50 to 500 nM; in test [4], above 1000 nM; in test [5], above 1000 nM; in test [6] it was above 10000 nM. Besides, in test [5], the MTAP intact/deleted ratio result was “C (an IC50 ratio of less than 3 fold)”.
Consider `CNS(=O)(=O)c1ccc([C@@H]2CC[C@@H](C)CN2C(=O)C(=O)Nc2cncc(C(N)=O)c2)cc1` (racemic) [Compound 652, rac 5-[[2-[(2S,5R)-5-methyl-2-[4-(methylsulfamoyl)phenyl]-1-piperidyl]-2-oxo-acetyl]amino]pyridine-3-carboxamide], for which the IC50 was 50 to 500 nM in test [1]; 50 to 500 nM in test [2]; 50 to 500 nM in test [3]; above 1000 nM in test [4]; above 1000 nM in test [5]; above 10000 nM in test [6]. For the same compound, in test [5], the MTAP intact/deleted ratio result is “C (an IC50 ratio of less than 3 fold)”.
Take `Cc1cc(NC(=O)C(=O)N2C[C@H](C)CC[C@H]2c2ccc(N)cn2)cnc1N` (racemic) [Compound 658, N-(6-amino-5-methyl-3-pyridyl)-2-[2-(5-amino-2-pyridyl)-5-methyl-1-piperidyl]-2-oxo-acetamide]: the IC50 in test [1] is 50 to 500 nM; in test [2], 50 to 500 nM; in test [3], 50 to 500 nM; in test [4], above 1000 nM; in test [5], 100 to 1000 nM; in test [6], above 10000 nM. In addition, the MTAP intact/deleted ratio result in test [5] is on record as “A (an IC50 ratio greater than or equal to 10 fold)”.
